Results as given in patent US20050255097A1, “Modified venom and venom components as anti-retroviral agents” (priority 2004, published 2005).

Tests used:
[1] = system: T cells from peripheral blood; conditions: Mizuno, et al., 1982; cited from earlier work
[2] = system: mice; format: in vivo
Excerpt: Administration of a highly toxic substance such as cobratoxin for therapeutic purposes is fraught with obvious difficulties, even when highly diluted. As a diluted substance, its potential effectiveness is reduced, and due to its high affinity for the nAchR, continued use could result in accumulation of the toxin at neuromuscular junctions and the diaphragm with the potential for adverse events. Alpha cobratoxin, of the Thailand cobra, Naja naja kaouthia, is a homogeneous non-glycosylated polypeptide composed of 71 amino acids with a molecular weight of 7821d and a pI of 9.6. Detoxification of alpha-cobratoxin can be achieved by exposure to heat, formamide, hydrogen peroxide, perchloric acid, ozone or other oxidizing agents. The result of exposure of cobratoxin to oxidizing agents is modification of amino acid side chains as well as the lysis of one or more disulfide bonds. […] The procedures used for detoxification described here are based upon the work of Sanders, who preferred the use of hydrogen peroxide (Sanders, et al., 1975). Loss of toxicity by oxidized alpha-neurotoxins (MCTX), as cobratoxin, can be determined by the intraperitoneal (IP) injection of excess levels of the modified protein into mice. […]
The endpoint of the above reactions are most easily determined by assessing the toxicity of the preparation in mice. […]

[3] = system: herpesvirus; assay: Antiviral activity against herpes virus; format: cell-based
[4] = system: Semliki Forest virus; assay: Antiviral activity against Semliki Forest virus (plaque assay); format: cell-based
Excerpt: Alternatively, an enzyme linked immunosorbant assay (ELISA) can evaluate loss of toxicity, as well as potential potency in terms of continued ability to bind to the nAchR. […] This enables a measurement of the depression in binding of the modified neurotoxin to nAchR, indicative of loss of toxicity, while simultaneously indicating a continued ability of the modified toxin to bind to the nAchR providing a measure of potency (Raymond; unpublished data). To test the effectiveness, or potency of detoxified venom, Sanders utilized a plaque assay with Semliki Forest virus (Miller, et al., 1977).

[5] = format: cell-based; conditions: virus not specified
[6] = pI and pH of protein solutions; format: physicochemical

For `C[N+](C)(C)CCOC(N)=O.[Cl-]` [carbamylcholine chloride], the “decrease of E-rosette formation” value [1] is listed as 30%-40%.

In the case of “alpha-cobratoxin: native non-glycosylated polypeptide of 71 amino acids from the Thailand cobra, Naja naja kaouthia”, the LD50 in mice ([2]; injected subcutaneously or intraperitoneally, death observable within hours) is reported as 1.2 µg, the time to death ([2]; injection of 1.5 mcg, 25 g mouse) is reported as no more than 25 min and the “antiviral activity against herpes” value [3] is reported as “does not have any antiviral activity”. For the same compound, the “antiviral activity against Semliki Forest virus” value [4] was “does not have any antiviral activity”, the antiviral activity [5] was “does not demonstrate antiviral activity” and the pH of solution [6] was 8.5. For the same compound, the pI [6] was 9.6.
